Measurements published in patent US7868185B2, “Shp-2 inhibitors and pharmaceutical compositions comprising them” (Max-Delbruck-Centrum fur Molekulare Medizin, priority 2005, dated 2011).

How the values were obtained:
[1] = earlier experiments; cited from earlier work
Met = Met (Homo sapiens, UniProt P08581); details: in vitro; cited from earlier work
HGF induced scattering = details: in vitro; cited from earlier work
[2] = test system: phosphorylation of MAP kinases Erk1 and Erk2; test: HGF/SF phosphorylation assay (MDCK); type: cell-based, canine; details: MDCK cells, HGF/SF stimulation, 5, 10, 20 μM, dose dependant
Description: MDCK cells are seeded at 0.15×10E6 cells/ml (1 ml/well) in a 12 well microtiter plate in DMEM/10% FBS and incubated over night at 37° C./5% CO2. Medium is exchanged against DMEM/1% FBS plus 5, 10 or 20 μM (final concentration) compound, and the cells are incubated for 16 h at 37° C./5% CO2. Medium is exchanged against DMEM (without serum) plus 5, 10 or 20 μM compound (final DMSO concentration less than 1%), and the cells are incubated for 2 h at 37° C./5% CO2. Medium is exchanged against DMEM (without serum) plus 5, 10 or 20 μM compound (final DMSO concentration less than 1%) plus 10 ng/ml HGF/SF, and the cells are incubated for 6 h at 37° C./5% CO2. […] Proteins on the blot are analyzed by antibodies against p42/p44 MAP kinase (Erk1/Erk2) (Cell Signaling Technology, Inc., Beverly, USA) and phospho-Erk1/Erk2 (Cell Signaling Technology, Inc., Beverly, USA).
The binding of the antibodies to the MAP kinases on the nitrocellulose was detected by incubation with secondary goat-anti-rabbit-antibodies coupled to horse radish peroxidase (Jackson ImmunoResearch Laboratories, Soham, UK) and subsequent reaction with ECL reagents (Western Lightning™, PerkinElmer Life Sciences, Inc. Boston, USA) and X-ray film exposure (X-OMAT™, Kodak GmbH, Stuttgart, Germany). […]

[3] = test system: phosphorylation of MAP kinases Erk1 and Erk2; test: HGF/SF phosphorylation assay (NCI-H661); type: cell-based, human; details: NCI-H661 cells (N58S in SHP2/PTPN11), HGF/SF stimulation, dose dependant
Description: Typically, human tumor cells (e.g. NCI-H661) were seeded at 0.25×10E6 cells/ml (1 ml/well) in a 6 well microtiter plate in RPMI/10% FBS and incubated over night at 37° C./5% CO2. Medium is exchanged against RPMI/1% FBS plus 5, 10 or 20 μM (final concentration) compound, and the cells were incubated for 20 h at 37° C./5% CO2. Medium was exchanged against RPMI (without serum) plus 5, 10 or 20 μM compound (final DMSO concentration less than 1%), and the cells were incubated for 4 h at 37° C./5% CO2. Medium was exchanged against DMEM (without serum) plus 5, 10 or 20 μM compound (final DMSO concentration less than 1%) plus 10 ng/ml HGF/SF, and the cells were incubated for 4 h at 37° C./5% CO2. […] Proteins on the blot were analyzed by antibodies against p42/p44 MAP kinase (Erk1/Erk2) (Cell Signaling Technology, Inc., Beverly, USA) and phospho-Erk1/Erk2 (Cell Signaling, Technology, Inc., Beverly, USA). The binding of the antibodies to the MAP kinases on the nitrocellulose was detected by incubation with secondary goat-anti-rabbit-antibodies coupled to horse radish peroxidase (Jackson ImmunoResearch Laboratories, Soham, UK) and subsequent reaction with ECL reagents (Western Lightning™, PerkinElmer Life Sciences, Inc. Boston, USA) and X-ray film exposure (X-OMAT™, Kodak GmbH, Stuttgart, Germany).

Sequence of Met (P08581 25-1390): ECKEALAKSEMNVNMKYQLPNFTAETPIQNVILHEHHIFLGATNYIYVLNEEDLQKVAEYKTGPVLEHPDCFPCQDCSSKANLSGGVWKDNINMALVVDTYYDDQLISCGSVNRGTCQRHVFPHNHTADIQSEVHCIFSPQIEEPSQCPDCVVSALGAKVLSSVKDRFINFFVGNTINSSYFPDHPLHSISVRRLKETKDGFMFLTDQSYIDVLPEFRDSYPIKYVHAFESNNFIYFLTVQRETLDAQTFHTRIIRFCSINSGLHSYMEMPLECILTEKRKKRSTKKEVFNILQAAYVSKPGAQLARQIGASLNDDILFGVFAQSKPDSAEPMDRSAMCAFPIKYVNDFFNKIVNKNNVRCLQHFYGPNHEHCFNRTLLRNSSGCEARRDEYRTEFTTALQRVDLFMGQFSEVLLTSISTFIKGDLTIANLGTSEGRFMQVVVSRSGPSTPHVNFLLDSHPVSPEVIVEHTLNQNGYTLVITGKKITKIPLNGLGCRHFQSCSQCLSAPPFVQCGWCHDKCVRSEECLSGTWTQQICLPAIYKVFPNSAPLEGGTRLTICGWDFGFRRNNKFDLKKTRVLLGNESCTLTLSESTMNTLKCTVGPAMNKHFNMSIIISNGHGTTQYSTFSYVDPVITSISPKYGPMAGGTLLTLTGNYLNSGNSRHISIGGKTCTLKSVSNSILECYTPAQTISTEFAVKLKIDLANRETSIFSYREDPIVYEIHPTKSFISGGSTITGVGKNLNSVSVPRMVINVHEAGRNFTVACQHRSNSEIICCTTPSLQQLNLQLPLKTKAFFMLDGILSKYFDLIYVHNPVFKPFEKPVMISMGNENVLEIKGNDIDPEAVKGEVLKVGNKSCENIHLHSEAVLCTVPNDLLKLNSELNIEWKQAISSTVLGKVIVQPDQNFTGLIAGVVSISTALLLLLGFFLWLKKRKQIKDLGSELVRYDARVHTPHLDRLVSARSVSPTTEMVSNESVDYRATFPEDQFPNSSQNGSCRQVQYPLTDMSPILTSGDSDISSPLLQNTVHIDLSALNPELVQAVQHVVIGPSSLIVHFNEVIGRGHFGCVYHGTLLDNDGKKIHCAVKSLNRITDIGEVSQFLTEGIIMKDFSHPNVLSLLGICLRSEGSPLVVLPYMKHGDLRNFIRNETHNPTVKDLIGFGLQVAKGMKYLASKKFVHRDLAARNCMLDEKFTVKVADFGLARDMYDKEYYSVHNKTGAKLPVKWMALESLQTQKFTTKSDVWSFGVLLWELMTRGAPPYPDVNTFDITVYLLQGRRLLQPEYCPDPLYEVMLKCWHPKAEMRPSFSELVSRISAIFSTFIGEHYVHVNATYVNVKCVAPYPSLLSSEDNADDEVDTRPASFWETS

| sustained MAP kinase phosphorylation (P-Erk1/Erk1) [2] | Compound | antitumor activity in vivo [1] | Met autophosphorylation (Met) | HGF induced scattering (HGF induced scattering) | sustained MAP kinase phosphorylation [3] |
| --- | --- | --- | --- | --- | --- |
|  | COC(=O)[C@@]1(O)C[C@H]2O[C@]1(C)n1c3ccccc3c3c4c(c5c6ccccc6n2c5c31)C(=O)NC4 [Compound K252a] | no antitumor activity | inhibits | inhibits |  |
| inhibited | O=C1/C(=N\Nc2ccc(S(=O)(=O)O)cc2)C(c2ccc([N+](=O)[O-])cc2)=NN1c1ccccc1 [II-1, 4-(2-(3-(4-nitrophenyl)-5-oxo-1-phenyl-1,5-dihydro-4H-pyrazol-4-ylidene)hydrazino)-benzenesulfonic acid] |  |  |  | inhibited |
